We go through six molecules from patent US4554367A, “Phosphonium organohalogenostannates-IV” (priority 1982, dated 1985).

A value given as a limit tells only on which side of the number the result lay.

One test concerns Endomyces geotrichum. In words: MIC against fungi, strain M. Type of test: cell-based. The note with it: malt extract agar. Here is the method: (§1) Determination of the minimum inhibitory concentration (MIC) against fungi
(§2) The investigation is carried out in malt extract agar (Merck) by the known agar incorporation test using the fungi
(§3) For inhibition, the various compounds are in each case added in amounts such that concentrations of […] results in the agar. The concentrations (mg/liter) required for inhibition of the growth of the fungi (starting from traces of fungi dripped on) are illustrated in Table D.

For a further test, the system named is Aureobasidium pullulans. In words: MIC against fungi, strain N. Type of test: cell-based. The note with it: malt extract agar. Here is the method: as §1, §2
N Aureobasidium pullulans
as §3

The test system of another test is Enterobacter aerogenes. In words: MIC against bacteria, strain C. Type of test: cell-based. The note with it: 24 h, 30° C., tested at 100 or 300 mg/liter. How it is done:
(§4) Determination of the minimum inhibitory concentration (MIC) against bacteria
(§5) ONCs (cultures incubated overnight) of the bacteria strains A-F grown in Caso-Peptone broth (Merck) are each diluted […] in saline. An amount of the suspension is introduced into Caso-Peptone broth such that the bacteria are again diluted 1:1,000. The cultures are treated with 100 or 300 mg/liter of the phosphonium stannates shown in Table B. After incubation at 30° C. in a shaking water bath for 24 hours, the cultures are evaluated on the basis of cloudiness. The MIC is the concentration at which the broth is not clouded by bacterial growth.

The subject of the next test is Chaetomium globosum. Briefly: MIC against fungi, strain O. Type of test: cell-based. Particulars: malt extract agar. How it is done:
as §1, §2, §3

Test [1] relates to Cladosporium cladosporioides. In words: MIC against fungi, strain K. Type of test: cell-based. Particulars: malt extract agar. Here is the method:
as §1, §2
K Cladosporium cladosporioides
as §3

The test system of another test is Chlorella vulgaris. In words: Action against Chlorella vulgaris. Type of test: cell-based. Details: key to Growth in the medium: 1: no growth in the medium, 3 ppm have a growthinhibiting action; key to Growth on the agar: 2: no growth on the agar, 3 ppm have destroyed the algae within 6 hours. The note with it: 3 mg/liter; for Growth on the agar: 6 hours exposure (algae-destruction action); for Growth in the medium: 14 days (inhibition of growth). Here is the method:
Determination of the action against algae
A Chlorella vulgaris culture grown for 14 days in algae nutrient medium is diluted 1:200 in algae nutrient medium. Each of the compounds listed in Table E is then added such that a concentration of 3 mg/liter results. After incubation for 6 hours, 10 μl are in each case withdrawn and dripped onto algae agar in order to determine the destructive action.

In test [2] the test system is Alkaligenes denitrificans. In words: MIC against bacteria, strain E. Type of test: cell-based. The note with it: 24 h, 30° C., tested at 100 or 300 mg/liter. How it is done: as §4, §5
A further test relates to Bacillus subtilis. Briefly: MIC against bacteria, strain F. Type of test: cell-based. Particulars: 24 h, 30° C., tested at 100 or 300 mg/liter. Here is the method: as §4, §5
The next test relates to Penicillium funiculosum. In words: MIC against fungi, strain I. Type of test: cell-based. Particulars: malt extract agar. Here is the method: as §1, §2
I Penicillium funiculosum
as §3

The subject of the next test is Alternaria alternata. Briefly: MIC against fungi, strain J. Type of test: cell-based. Particulars: malt extract agar. How it is done: as §1, §2, §3
For a further test, the system named is Serratia marcenscens. In words: MIC against bacteria, strain D. Type of test: cell-based. The note with it: 24 h, 30° C., tested at 100 or 300 mg/liter. How it is done: as §4, §5
The subject of the next test is Candida albicans. Briefly: MIC against fungi, strain L. Particulars: malt extract agar. Type of test: cell-based. How it is done: as §1, §2, §3
A further test concerns Pseudomonas aeruginosa. In words: MIC against bacteria, strain B. Type of test: cell-based. The note with it: 24 h, 30° C., tested at 100 or 300 mg/liter. How it is done: as §4, §5
Another test has as its system Proteus vulgaris. In words: MIC against bacteria, strain A. Type of test: cell-based. Particulars: 24 h, 30° C., tested at 100 or 300 mg/liter. How it is done: as §4, §5
Another test relates to Aspergillus niger. In words: MIC against fungi, strain G. The note with it: malt extract agar. Type of test: cell-based. Here is the method:
as §1, §2

For a further test, the system named is Aspergillus phoenicia. Briefly: MIC against fungi, strain H. Type of test: cell-based. Particulars: malt extract agar. How it is done:
as §1, §2, §3

The next test deals with Artemia salina. In words: Action against Artemia salina. Type of test: in vivo. Details: key: 0: nauplii not affected; 1: slight change; 1-2: nauplii affected; 2: nauplii severely affected; 2-3: almost all nauplii dead; 3: all nauplii dead. An excerpt:
Determination of the action against Artemia salina
The commercially available eggs are caused to hatch under powerful aeration. […]

Take `CCCCCCCCCCCCCC[P+](CCCC)(CCCC)CCCC.CCCCCCCCCCCCCC[P+](CCCC)(CCCC)CCCC.CCC[CH2][Sn-2]([Cl])([Cl])([Cl])([Cl])[Cl]` [Example 25]: the MIC against fungi was 10 µg/mL against Endomyces geotrichum; 10 µg/mL against Aureobasidium pullulans; 50 µg/mL in the test on Chaetomium globosum; 10 µg/mL in [1]; 10 µg/mL with Penicillium funiculosum; 100 µg/mL against Alternaria alternata. Besides, the MIC against fungi was 50 µg/mL against Candida albicans, 100 µg/mL against Aspergillus niger and over 100 µg/mL with Aspergillus phoenicia. The MIC (against Enterobacter aerogenes; in test [2]; against Bacillus subtilis; against Serratia marcenscens; against Pseudomonas aeruginosa; with Proteus vulgaris) was 100 µg/mL in each case. Moreover, the “Growth on the agar” value with Chlorella vulgaris came out at 2. Further, the “Growth in the medium” value in the test with Chlorella vulgaris stood at 1.
For the molecule `CCCCCCCCCCCCCC[P+](CCCC)(CCCC)CCCC.CCCCCCCCCCCCCC[P+](CCCC)(CCCC)CCCC.[CH3][Sn-2]([Cl])([Cl])([Cl])([Cl])[Cl]` [Example 23], the MIC against fungi came to 10 µg/mL against Endomyces geotrichum; 10 µg/mL in the test with Aureobasidium pullulans; 10 µg/mL in the test with Chaetomium globosum; 10 µg/mL in test [1]; 10 µg/mL against Penicillium funiculosum; 50 µg/mL against Alternaria alternata. The MIC against fungi in the test with Candida albicans amounted to 10 µg/mL; against Aspergillus niger, 50 µg/mL; with Aspergillus phoenicia, 50 µg/mL. The MIC (with Enterobacter aerogenes; in test [2]; in the test on Bacillus subtilis; against Serratia marcenscens; against Pseudomonas aeruginosa; with Proteus vulgaris) was 100 µg/mL each time. Also, in the test on Chlorella vulgaris, the “Growth on the agar” value is reported as 2. In addition, the “Growth in the medium” value in the test on Chlorella vulgaris is 1. For the same molecule, the “Action against Artemia salina” value in the test on Artemia salina (0.25 mg/liter, 6 hours) was 0; in the test with Artemia salina (0.25 mg/liter, 24 hours), 1-2; with Artemia salina (0.25 mg/liter, 48 hours), 2-3; in the test on Artemia salina (0.5 mg/liter, 6 hours), 1-2; in the test with Artemia salina (0.5 mg/liter, 24 hours) it was 2-3; with Artemia salina (0.5 mg/liter, 48 hours), 3. In addition, the “Action against Artemia salina” value with Artemia salina (1 mg/liter, 6 hours) is 1-2; in the test with Artemia salina (1 mg/liter, 24 hours), 3; in the test with Artemia salina (1 mg/liter, 48 hours), 3; in the test with Artemia salina (2.5 mg/liter, 6 hours), 1-2; with Artemia salina (2.5 mg/liter, 24 hours), 3; in the test on Artemia salina (2.5 mg/liter, 48 hours), 3.
In the case of `CCCCCCCCCCCCCC[P+](CCCC)(CCCC)CCCC.CCCCCCCCCCCCCC[P+](CCCC)(CCCC)CCCC.[CH3][Sn-2]([CH3])([Cl])([Cl])([Cl])[Cl]` [Example 21], the MIC against fungi against Endomyces geotrichum was 10 µg/mL; in the test with Aureobasidium pullulans, 10 µg/mL; against Chaetomium globosum, 10 µg/mL; in test [1], 10 µg/mL; with Penicillium funiculosum, 10 µg/mL; against Alternaria alternata, 50 µg/mL. Also, the results for the MIC against fungi in the test with Candida albicans, in the test with Aspergillus niger and against Aspergillus phoenicia were 10 µg/mL, 50 µg/mL and 50 µg/mL, respectively. Moreover, the MIC (with Enterobacter aerogenes; in [2]; in the test on Bacillus subtilis; against Serratia marcenscens; against Pseudomonas aeruginosa; in the test on Proteus vulgaris) was 100 µg/mL each time. For the same molecule, in the test with Chlorella vulgaris, the “Growth on the agar” value was 2. The “Growth in the medium” value in the test with Chlorella vulgaris is on record as 1. Also, the “Action against Artemia salina” value in the test on Artemia salina (0.25 mg/liter, 6 hours) was 1-2; in the test with Artemia salina (0.25 mg/liter, 24 hours), 3; in the test with Artemia salina (0.25 mg/liter, 48 hours) it was 3; in the test on Artemia salina (0.5 mg/liter, 6 hours), 1-2; in the test on Artemia salina (0.5 mg/liter, 24 hours), 2; with Artemia salina (0.5 mg/liter, 48 hours), 3. Moreover, the “Action against Artemia salina” value is 1-2 in the test with Artemia salina (1 mg/liter, 6 hours); 3 in the test on Artemia salina (1 mg/liter, 24 hours); 3 with Artemia salina (1 mg/liter, 48 hours); 1-2 in the test with Artemia salina (2.5 mg/liter, 6 hours); 3 with Artemia salina (2.5 mg/liter, 24 hours); 3 with Artemia salina (2.5 mg/liter, 48 hours).
In the case of `CCCCCCCCCCCCCC[P+](CCCC)(CCCC)CCCC.[CH3][Sn-]([Cl])([Cl])([Cl])[Cl]` [Example 22], the MIC against fungi with Endomyces geotrichum turned out to be 10 µg/mL; against Aureobasidium pullulans, 10 µg/mL; in the test on Chaetomium globosum it was 10 µg/mL; in test [1], 10 µg/mL; in the test with Penicillium funiculosum, 10 µg/mL; against Alternaria alternata, 50 µg/mL. The MIC against fungi stood at 10 µg/mL against Candida albicans, 50 µg/mL against Aspergillus niger and 50 µg/mL with Aspergillus phoenicia. Besides, the MIC (with Enterobacter aerogenes; in test [2]; with Bacillus subtilis; in the test on Serratia marcenscens; in the test with Pseudomonas aeruginosa; with Proteus vulgaris) was 100 µg/mL each time. Besides, the “Growth on the agar” value in the test with Chlorella vulgaris came to 2. For the same molecule, in the test on Chlorella vulgaris, the “Growth in the medium” value is on record as 1. In addition, the “Action against Artemia salina” value with Artemia salina (0.25 mg/liter, 6 hours) is recorded as 0; with Artemia salina (0.25 mg/liter, 24 hours), 1-2; in the test on Artemia salina (0.25 mg/liter, 48 hours), 2-3; in the test with Artemia salina (0.5 mg/liter, 6 hours), 1-2; with Artemia salina (0.5 mg/liter, 24 hours) it was 3; in the test on Artemia salina (0.5 mg/liter, 48 hours) it was 3. Further, the “Action against Artemia salina” value with Artemia salina (1 mg/liter, 6 hours) is reported as 1-2; in the test on Artemia salina (1 mg/liter, 24 hours), 3; in the test with Artemia salina (1 mg/liter, 48 hours), 3; in the test on Artemia salina (2.5 mg/liter, 6 hours), 1-2; with Artemia salina (2.5 mg/liter, 24 hours) it was 3; in the test on Artemia salina (2.5 mg/liter, 48 hours) it was 3.
For `CCCCCCCCCCCCCC[P+](CCCC)(CCCC)CCCC.CCC[CH2][Sn-]([Cl])([Cl])([Cl])[Cl]` [Example 24], the MIC against fungi in the test on Endomyces geotrichum is 50 µg/mL; with Aureobasidium pullulans, 10 µg/mL; in the test with Chaetomium globosum, 50 µg/mL; in [1], 10 µg/mL; against Penicillium funiculosum, 10 µg/mL; with Alternaria alternata it was over 100 µg/mL. Also, the results for the MIC against fungi in the test with Candida albicans, with Aspergillus niger and with Aspergillus phoenicia were 50 µg/mL, over 100 µg/mL and over 100 µg/mL, respectively. Further, the MIC (against Enterobacter aerogenes; in [2]; in the test with Bacillus subtilis; against Serratia marcenscens; with Pseudomonas aeruginosa; against Proteus vulgaris) was 100 µg/mL in each case. Moreover, in the test on Chlorella vulgaris, the “Growth on the agar” value was 2. The “Growth in the medium” value with Chlorella vulgaris is recorded as 1.
Turning to `CCCC[P+](CCCC)(CCCC)CCCC.CCC[CH2][Sn-]([Cl])([Cl])([CH2]CCC)[CH2]CCC` [Example 45], the MIC against fungi (with Endomyces geotrichum; with Aureobasidium pullulans; against Chaetomium globosum; in test [1]; in the test with Penicillium funiculosum; against Alternaria alternata) was 10 µg/mL each time. Also, the MIC against fungi against Candida albicans, against Aspergillus niger and with Aspergillus phoenicia was 10 µg/mL each time. Moreover, the “Growth on the agar” value with Chlorella vulgaris came out at 2. For the same molecule, the “Growth in the medium” value with Chlorella vulgaris came to 1.
